Data from patent US20110275103A1, “EMISSION RATIOMETRIC REPORTERS OF MEMBRANE PDK1 ACTIVATION” (THE JOHNS HOPKINS UNIVERSITY, priority 2010, published 2011).
Entries after “also recorded” stand apart in the source; their conditions may differ.

How the values were obtained:
Assay type in all cases: cell-based
Akt [1] = assay: FRET-based Akt activity reporter (AktAR) imaging in 3T3 L1 preadipocytes; conditions: pre-incubation with 50 μM C2-ceramide
Description: (§1) Cells were plated on sterilized glass coverslips in 35 mm dishes and were grown to 40% confluency in medium at 37° C. with 5% CO2, then transfected with Lipofectamine 2000. In the case of NIH 3T3 and HeLa cells, the cells were serum-starved for 24 h. For imaging, cells were washed with Hanks' balanced salt solution (HBSS) and imaged in the dark at room temperature. Images were acquired on a Zeiss Axiovert 200M microscope with a cooled charge-coupled device camera, as previously described (8). Dual-emission ratio imaging was performed with a 420DF20 excitation filter, a 450DRLP dichroic mirror, and two emission filters. For CFP and YFP, 475DF40 and 535DF25, respectively, were used. Exposure times were 50-500 ms. Images were taken every 30 s. Imaging data were analyzed with Metafluor 6.2 software (Universal Imaging, Downingtown, Pa.). Fluorescence images were background-corrected by deducting the background (regions with no cells) from the emission intensities of CFP or YFP. Traces were normalized by taking the emission ratio before addition of drugs as 1.

Akt [2] = assay: Membrane translocation of Akt PH domain in 3T3 L1 preadipocytes; conditions: pre-incubation with 50 μM C2-ceramide
Description: as §1

Akt [3] = assay: Membrane translocation of YFP-tagged Akt PH domain in NIH 3T3 cells
Description: as §1

3T3 L1 adipocytes = assay: Glucose uptake assay ([14C]2-deoxyglucose) in 3T3 L1 adipocytes; conditions: pre-incubation with 50 μM C2-ceramide for 60 min, 100 nM insulin, n=3
Description: 3T3-L1 preadipocytes were grown to confluency in 10% calf serum/DMEM and stimulated with induction media (DMEM containing 10% fetal bovine serum, 1 μg/ml insulin, 1 μM dexamethasone, and 0.5 mM 3-isobutyl-1-methylxanthine) at 2 days post-confluency.
The medium was changed to insulin medium (1 μg/ml) 2 days after induction. Two days later, the medium was replaced with 10% fetal bovine serum/DMEM and then changed every 2 days. Full differentiation was achieved by 8 days after induction.
Adipocytes were incubated in Krebs-Ringer bicarbonate buffer supplemented with 30 mM HEPES, pH 7.4, with 0.5% BSA (KRBH/BSA) and 2.5 mM glucose for 3 h. The cells were washed once with PBS and incubated in BSA/KRH (25 mM HEPES-NaOH, pH 7.4, with 120 mM NaCl, 5 mM KCl, 1.2 mM MgSO4, 1.3 mM CaCl2, and 1.3 mM KH2PO4) without glucose for 15 min. The cells were then incubated with 100 nM insulin for 15 min. The assay was initiated by the addition of ^[14C]2-deoxyglucose (0.4 μCi/sample) and 5 mM glucose and terminated after 15 min by washing the cells three times with ice-cold PBS. Cells were solubilized in 1% Triton-100, and cell-associated radioactivity was determined by scintillation counting.

Akt [4] = assay: FRET-based Akt activity reporter (AktAR) imaging in NIH 3T3 cells; conditions: pre-incubation with 50 μM C2-ceramide for 60 min
Description: as §1

PDK1 [5] = assay: FRET emission ratio imaging of PDK1 activation reporters (PARE, Lyn-PARE, PARE-Kras) in NIH 3T3 cells; conditions: for emission ratio change of the non-raft-targeted reporter (PARE-Kras) / emission ratio change of the untargeted reporter (PARE) / response of the Lyn-PARE R472/474A mutant reporter / increase in the yellow-to-cyan emission ratio of the raft-targeted PDK1 activity reporter (Lyn-PARE): serum-starved NIH 3T3 cells
From the text: (§2) PARE was generated by sandwiching full-length PDK1 between a FRET pair, ECFP and Citrine. Lyn-PARE and PARE-Kras were generated by the addition of the N-terminal portion of the Lyn kinase gene (GCIKSKRKDKD; SEQ ID NO:6) at the 5′ end and a C(A)2X tag (C is cysteine, A is an aliphatic amino acid, and X is any amino acid) at the 3′ end (KKKKKSKTKCVIM; SEQ ID NO:7) of PARE, respectively. Lyn-PARE R472/474A was generated by site-directed mutagenesis. PTEN A4 (fused with a C-terminal fluorescent protein) was targeted to raft and non-raft regions of plasma membrane with the same set of targeting motifs. All of the constructs were generated in a modified version of the mammalian expression vector pcDNA 3.
as §1

PDK1 [6] = assay: FRET emission ratio imaging of Lyn-PARE in 3T3 L1 preadipocytes; conditions: pre-incubation with 50 μM C2-ceramide
From the text: as §2
Cells were plated on sterilized glass coverslips in 35 mm dishes and were grown to 40% confluency in medium at 37° C. with 5% CO2, then transfected with Lipofectamine 2000. In the case of NIH 3T3 and HeLa cells, the cells were serum-starved for 24 h. For imaging, cells were washed with Hanks' balanced salt solution (HBSS) and imaged in the dark at room temperature. […] Imaging data were analyzed with Metafluor 6.2 software (Universal Imaging, Downingtown, Pa.). Fluorescence images were background-corrected by deducting the background (regions with no cells) from the emission intensities of CFP or YFP. […]

PTEN = assay: Sucrose density gradient fractionation of crude plasma membranes and anti-PTEN Western blot, 3T3-L1 adipocytes
Description: Cells were washed with ice-cold PBS and then lysed in RIPA lysis buffer containing protease inhibitor cocktail (Roche), 1 mM PMSF, 1 mM NaVO4, 1 mM NaF and 25 nM calyculin A. Total cell lysates were incubated on ice for 30 min, then centrifuged at 4° C. for 20 min. Total protein was separated with 7.5% SDS-PAGE and transferred to nitrocellulose membranes. The membranes were blocked with TBS containing 0.05% Tween-20 and 1% bovine serum albumin, then incubated with primary antibodies overnight at 4° C. After incubation with the appropriate horseradish peroxidase-conjugated secondary antibodies, the bands were visualized by enhanced chemiluminescence. The intensity of the bands was quantified with ImageJ software.
Cells were rinsed twice with ice-cold PBS and harvested into 10 mM Tris (pH 7.4) with 150 mM NaCl, 5 mM EDTA, 2 mM PMSF, 2 mM NaVO4, 2 mM NaF, and 50 nM calyculin A, with protease inhibitor cocktail. The cells then were subjected to mechanical disruption with 15 strokes of a homogenizer. Homogenates were centrifuged at 2,300×g for 5 min at 4° C., and the supernatant was centrifuged at 18,000×g for 50 min at 4° C. (32). The resulting membrane pellets were resuspended in 10 mM Tris (pH 7.4) with 150 mM NaCl, 5 mM EDTA, 2 mM PMSF, 2 mM NaVO4, 2 mM NaF and 50 nM calyculinA A, with protease inhibitor cocktail and 1% Triton X-100, for sucrose density gradient fractionation. […]

PDK1 [7] = assay: FRET emission ratio imaging of PDK1 activation reporters in HeLa cells; conditions: serum-starved HeLa cells; 100 ng/ml EGF
From the text: as §2, §1

[8] = NIH 3T3 cells, pre-incubation with 50 μM C2-ceramide for 60 min

**Q.** Which results are given for `CCCCCCCCCCCCC/C=C/[C@@H](O)[C@H](CO)NC(C)=O` [C2-ceramide]?
**A.** effect on response of AktAR (Akt [1]): abolished; effect on membrane translocation of Akt PH domain (Akt [2]): abolished; effect on membrane translocation of Akt PH domain (Akt [3]; [8]): abolished; effect on insulin-induced glucose uptake (3T3 L1 adipocytes): blocked insulin-induced glucose uptake; also recorded: inhibited insulin-induced glucose uptake; effect on response of AktAR (Akt [4]): abolished; effect on response of Lyn-PARE (PDK1 [5]; [8]): abolished; effect on response of Lyn-PARE (PDK1 [6]): abolished; increase in the amount of PTEN found in raft fractions (PTEN; pre-incubation with 50 μM C2-ceramide, n=3): 8.8±2.1 fold; level of PTEN in non-raft regions of adipocyte membranes (PTEN; pre-incubation with C2-ceramide): without changing the level of PTEN

**Q.** Which “effect on Akt PH membrane translocation suppressed by Lyn-PTEN A4” value (Akt [3]; 50 mM H2O2) does the source give for `OO` [H2O2] here?
**A.** restored the membrane translocation

**Q.** And the “effect on inhibition of Akt-PH translocation by non-raft-targeted PTEN A4 (PTEN A4-Kras)” value (Akt [3]; H2O2 treatment)?
**A.** reversed

**Q.** What about the “effect on Lyn-PARE response to PDGF suppressed by targeted PTEN A4” value (PDK1 [5]; NIH 3T3 cells, 50 mM H2O2) of the same molecule?
**A.** restored

**Q.** How did the “emission ratio change of the non-raft-targeted reporter (PARE-Kras)” value (PDK1 [7]) turn out when “EGF: epidermal growth factor, purchased from Sigma-Aldrich (NSDSECPLSHDGYCLHDGVCMYIEALDKYACNCVVGYIGERCQYRDLKWWELR; UniProt P01133 971-1023, looked up)” was run?
**A.** but not PARE (n=4) or PARE-Kras

**Q.** What about the “emission ratio change of the raft-targeted reporter (Lyn-PARE)” value (PDK1 [7]) of the same molecule?
**A.** induced an emission ratio increase

**Q.** And the “emission ratio change of the untargeted reporter (PARE)” value (PDK1 [7])?
**A.** but not PARE

**Q.** What does the source list for PDGF?
**A.** emission ratio change of the non-raft-targeted reporter (PARE-Kras) (PDK1 [5]; 50 ng/ml PDGF): no emission ratio change; emission ratio change of the untargeted reporter (PARE) (PDK1 [5]; 50 ng/ml PDGF): no emission ratio change; response of the Lyn-PARE R472/474A mutant reporter (PDK1 [5]; 50 ng/ml PDGF): lack of response; increase in the yellow-to-cyan emission ratio of the raft-targeted PDK1 activity reporter (Lyn-PARE) (PDK1 [5]; 50 ng/ml PDGF, n=7): 19±4%

**Q.** Which “emission ratio change of the non-raft-targeted reporter (PARE-Kras)” value (PDK1 [5]; 100 μM PV) does the source give for pervanadate [PV] here?
**A.** Only the raft-targeted PDK1 activity reporter showed an increase

**Q.** What about the “emission ratio change of the untargeted reporter (PARE)” value (PDK1 [5]; 100 μM PV) of the same molecule?
**A.** no emission ratio change

**Q.** What about the “increase in the yellow-to-cyan emission ratio of the raft-targeted PDK1 activity reporter (Lyn-PARE)” value (PDK1 [5]; 100 μM PV, n=5) of the same molecule?
**A.** 20.7±3.3%

**Q.** And the “response of the Lyn-PARE R472/474A mutant reporter” value (PDK1 [5]; PV)?
**A.** lack of response
